In article PMC8571282 (Nature Communications, 2021):
Several values for one entry are separate records, joined by “and”; a condition that tells them apart may be missing. Equal values may be shown once.

Key:
VeroE6 cells = test: Cytotoxicity assay (PrestoBlue), VeroE6; settings: 72 h
[1] = Cytotoxicity assay (PrestoBlue), VeroE6; settings: African green monkey, VeroE6 cells
in vivo = settings: iv, 20 mg/kg
[2] = Toxicity-testing across the cell panel (range); settings: human, African green monkey, hamster

N#C[C@@]1(c2ccc3c(N)ncnn23)O[C@H](CO)[C@@H](O)[C@H]1O [GS-441524]
% cell viability (VeroE6 cells; VeroE6, 0.046 µM, 0.046 µM): 56% and 59%
% cell viability (VeroE6 cells; VeroE6, 1.235 µM, 1.235 µM): 91% and 82%
% cell viability (VeroE6 cells; VeroE6, 3.704 µM, 3.704 µM): 92%
% cell viability (VeroE6 cells; VeroE6, 100 µM, 100 µM): 59%
CC50 at 72 h [1]: > 100 µM
viability at 72 h, 0.046 µM ([1]; % cell viability, VeroE6, 0.046 µM, 72 h): 60%
viability at 72 h, 1.235 µM ([1]; % cell viability, VeroE6, 1.235 µM, 72 h): 75%
viability at 72 h, 3.704 µM ([1]; % cell viability, VeroE6, 3.704 µM, 72 h): 84%
viability at 72 h, 100 µM ([1]; % cell viability, VeroE6, 100 µM, 72 h): 66%
AUC(0-t) (in vivo): 81.1 µM·h
Cmax (in vivo): 54.2 µM
clearance (in vivo): 14.3 mL/min/kg
half-life (in vivo): 3.4 h
CC50 at 72 h [2]: > 100 µM
